Several values for one entry are separate records, joined by “and”; a condition that tells them apart may be missing. Equal entries are not always repeated.
System: imiquimod-induced psoriasis
Experiment: Imiquimod-induced psoriasis model
Type: in vivo, mice
Design: Spleen Weight / Spleen Weight Ratio: unit not given here
Settings: for PASI Scores / Number Licking / Number Licking + Scratching / Number Scratching / Distance Traveled / Number Rearings / Spleen Weight / Spleen Weight Ratio: individual animals; for Distance Traveled / Number Rearings: behavioral evaluation; for Spleen Weight / Spleen Weight Ratio: mice
In short: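 Psoriasis-like dermatitis induced in mice by daily dorsal imiquimod cream (Days 1–14); dosing with Compound A (5% DMSO/40% PEG-400/55% saline vehicle) began Day 8. Read-outs: summed 0–4 scores for erythema, induration and peeling daily to Day 15, plus terminal spleen ratio, behaviour and serum cytokines.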

[1] = IMI-psoriasis model, behavioral evaluation D15, 1 mg/kg
[2] = IMI-psoriasis model, behavioral evaluation D15, 3 mg/kg
[3] = IMI-psoriasis model, behavioral evaluation D15, 10 mg/kg

For `COCCn1cc(-c2ccccc2)c(-c2cn(C)c(=O)c3[nH]c(-c4cnn(C(F)(F)F)c4)cc23)cc1=O` [Compound B, 4-(1-(2-methoxyethyl)-2-oxo-5-phenyl-1,2-dihydropyridin-4-yl)-6-methyl-2-(1-(trifluoromethyl)-1H-pyrazol-4-yl)-1,6-dihydro-7H-pyrrolo[2,3-c]pyridin-7-one], the “PASI Scores” value (IMI + Compound B 1 mg/kg, D13) was 4 (2×) and 5 (3×) and 8 and 7 (2×), the “PASI Scores” value (IMI + Compound B 1 mg/kg, D14) was 4 (2×) and 7 (2×) and 6 (3×) and 5 and the “PASI Scores” value (IMI + Compound B 1 mg/kg, D15) was 5 (3×) and 7 and 4 and 6 (2×) and 3. The “PASI Scores” value (IMI + Compound B 3 mg/kg, D8 (day treatment started)) was 8 and 7 (4×), the “PASI Scores” value (IMI + Compound B 3 mg/kg, D9) was 7 and 8 and 6 (3×) and the “PASI Scores” value (IMI + Compound B 3 mg/kg, D10) was 6 (2×) and 8 and 5 and 4. For the same molecule, the “PASI Scores” value (IMI + Compound B 3 mg/kg, D11) was 5 (4×) and 6, the “PASI Scores” value (IMI + Compound B 3 mg/kg, D12) was 4 and 6 (3×) and the “PASI Scores” value (IMI + Compound B 3 mg/kg, D13) was 6 and 4 (3×). For the same molecule, the “PASI Scores” value (IMI + Compound B 3 mg/kg, D14) was 6 and 4 and 5 and 3, the “PASI Scores” value (IMI + Compound B 3 mg/kg, D15) was 4 and 5 and 3 and 1 and the “Use Enrichment D1” value (IMI-psoriasis model, D1, 1 mg/kg, per cage (two animals)) was 4.0. For the same molecule, the “Use Enrichment D1” value (IMI-psoriasis model, D1, 3 mg/kg, per cage (two animals)) was 4.0, the “Use Enrichment D1” value (IMI-psoriasis model, D1, 10 mg/kg, per cage (two animals)) was 4.0 and the “Use Enrichment D8” value (IMI-psoriasis model, D8, 1 mg/kg, per cage (two animals)) was 1.0 and 1.5. The “Use Enrichment D9” value (IMI-psoriasis model, D9, 1 mg/kg, per cage (two animals)) was 1.5 and 2.0 and 1.0, the “Use Enrichment D10” value (IMI-psoriasis model, D10, 1 mg/kg, per cage (two animals)) was 2.5 and 1.5 and 3.0 and the “Use Enrichment D11” value (IMI-psoriasis model, D11, 1 mg/kg, per cage (two animals)) was 3.0 and 3.5 and 2.5. For the same molecule, the “Use Enrichment D11” value (IMI-psoriasis model, D11, 3 mg/kg, per cage (two animals)) was 2.0 and 4.0 and 2.5, the “Use Enrichment D12” value (IMI-psoriasis model, D12, 1 mg/kg, per cage (two animals)) was 1.5 and 1.0 and the “Use Enrichment D13” value (IMI-psoriasis model, D13, 10 mg/kg, per cage (two animals)) was 4.0 and 2.5. The “Use Enrichment D14” value (IMI-psoriasis model, D14, 1 mg/kg, per cage (two animals)) was 2.5 and 2.0 and 1.5, the “Use Enrichment D14” value (IMI-psoriasis model, D14, 3 mg/kg, per cage (two animals)) was 3.0 and 4.0 and 3.5 and 2.5 and the “Use Enrichment D14” value (IMI-psoriasis model, D14, 10 mg/kg, per cage (two animals)) was 4.0. The “Use Enrichment D15” value (IMI-psoriasis model, D15, 3 mg/kg, per cage (two animals)) was 3.5 and 4.0 and 3.0, the “Use Enrichment D15” value (IMI-psoriasis model, D15, 10 mg/kg, per cage (two animals)) was 4.0 and the “Number Licking” value [1] was 3 (4×) and 2 and 7 and 4 and 5. The “Number Licking + Scratching” value [1] was 5 (3×) and 8 and 3 and 4 and 7 and 6, the “Number Scratching” value [1] was 2 (2×) and 5 and 0 (3×) and 1 and 3 and the “Number Licking” value [2] was 8 (2×) and 9 and 3 (4×). For the same molecule, the “Number Licking + Scratching” value [2] was 8 and 11 and 4 and 3 (2×) and 5 and 13, the “Number Scratching” value [2] was 0 (3×) and 2 (2×) and 1 and 5 and the “Number Licking” value [3] was 6 and 4 and 2 (4×) and 3. For the same molecule, the “Number Licking + Scratching” value [3] was 6 and 5 and 2 (2×) and 3 (3×), the “Number Scratching” value [3] was 0 (4×) and 1 (3×) and the “Distance Traveled” value (IMI-psoriasis model, 1 mg/kg) was 15 m and 7 m and 11 m and 8 m and 9 m and 13 m and 14 m (2×). For the same molecule, the “Number Rearings” value (IMI-psoriasis model, 1 mg/kg) was 44 and 23 and 47 and 19 and 29 and 27 and 87 and 49, the “Distance Traveled” value (IMI-psoriasis model, 3 mg/kg) was 17 m and 9 m and 23 m and 12 m and 15 m and 11 m and 13 m and the “Number Rearings” value (IMI-psoriasis model, 3 mg/kg) was 27 and 38 and 121 and 47 and 31 and 60 and 57. The “Distance Traveled” value (IMI-psoriasis model, 10 mg/kg) was 15 m and 14 m and 16 m and 7 m (3×) and 6 m, the “Number Rearings” value (IMI-psoriasis model, 10 mg/kg) was 44 (2×) and 71 and 6 and 11 and 1 and 13 and the “Use Enrichment Mean D1-D8” value (IMI-psoriasis model, mean D1-D8, 1 mg/kg, per cage (two animals)) was 2.50 and 2.75. For the same molecule, the “Use Enrichment Mean D1-D8” value (IMI-psoriasis model, mean D1-D8, 3 mg/kg, per cage (two animals)) was 2.50 and 2.75 and 2.25, the “Use Enrichment Mean D1-D8” value (IMI-psoriasis model, mean D1-D8, 10 mg/kg, per cage (two animals)) was 2.50 and 2.75 and 2.00 and 3.00 and the “Use Enrichment Mean D8-D15” value (IMI-psoriasis model, mean D8-D15, 1 mg/kg, per cage (two animals)) was 2.57 and 2.07 and 2.43 and 2.14. The “Use Enrichment Mean D8-D15” value (IMI-psoriasis model, mean D8-D15, 10 mg/kg, per cage (two animals)) was 3.50 and 2.29 and 1.93 and 3.07, the “Spleen Weight” value (IMI-psoriasis model, 1 mg/kg) was 255.35 and 280.52 and 235.85 and 298.12 and 227.47 and 255.31 and 244.77 and 316.12 and the “Spleen Weight Ratio” value (IMI-psoriasis model, 1 mg/kg) was 1562.73 and 1912.20 and 1309.55 and 1793.74 and 1315.62 and 1552.98 and 1518.42 and 1820.97. For the same molecule, the “Spleen Weight” value (IMI-psoriasis model, 3 mg/kg) was 244.98 and 212.34 and 270.73 and 183.55 and 232.29 and 224.28 and 206.85 and 220.98, the “Spleen Weight Ratio” value (IMI-psoriasis model, 3 mg/kg) was 1777.79 and 1257.94 and 1699.50 and 1016.90 and 1343.49 and 1313.11 and 1297.68 and 1278.08 and the “Spleen Weight” value (IMI-psoriasis model, 10 mg/kg) was 184.80 and 169.45 and 184.96 and 119.62 and 101.24 and 156.25 and 130.42 and 159.58.

From patent US20260217701A1, “SELECTIVE BET INHIBITORS AND USES THEREOF” (Tay Therapeutics Limited, priority 2022, published 2026)
